The values below come from patent US8921307B2, “Synthetic linear apelin mimetics for the treatment of heart failure” (priority 2012, dated 2014).

The structures appear in SMILES notation. Where a SMILES comes first, the peptide text is derived from it. [ ]: non-standard residue; d: D form. pGlu = O=C1CC[C@@H](C(=O)O)N1; dNle = CCCC[C@@H](N)C(=O)O Where only a bound is given, the exact number is not on record here.

As usually defined, the EC50 is the concentration giving half of the maximal effect. For orientation: half-life means how long it takes for the measured level to halve.

In one data set the target is T1, hAPJ (Homo sapiens, UniProt P35414).
T1 sequence (P35414 1-380): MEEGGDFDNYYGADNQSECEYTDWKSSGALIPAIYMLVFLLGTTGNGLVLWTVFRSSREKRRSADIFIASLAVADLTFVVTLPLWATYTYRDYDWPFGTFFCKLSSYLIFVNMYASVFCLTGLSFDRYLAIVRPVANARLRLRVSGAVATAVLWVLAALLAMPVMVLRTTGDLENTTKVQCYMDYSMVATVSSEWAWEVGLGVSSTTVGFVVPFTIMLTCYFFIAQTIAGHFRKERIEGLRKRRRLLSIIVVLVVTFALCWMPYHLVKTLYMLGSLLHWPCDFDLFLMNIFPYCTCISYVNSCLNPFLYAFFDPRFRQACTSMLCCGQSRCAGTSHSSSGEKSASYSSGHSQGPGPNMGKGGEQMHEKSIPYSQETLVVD
Put plainly: hAPJ Calcium Flux Assay. The class given is cell-based. The following applies: Chem-5 APJ stable cells, FLIPR calcium flux stimulation; read-out: hAPJ Ca^2+ Flux EC50. The procedure, abridged: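 Chem-5 cells stably expressing APJ, loaded 1 h with Calcium 4 dye plus 2.5 mM probenecid at 37 °C. Peptides added at final […] in HBSS/HEPES/0.1% BSA, in triplicate.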
A general note: Calcium assays in cells follow changes in intracellular calcium, usually with a dye or a luminescent sensor.

Data set [1] in a line: Surrogate Activity-Based Plasma Stability Assay. Conditions: rat. It is filed as in vitro ADME. As for the experimental part: Stability half-life was then calculated by the formula, t½=0.693÷k Surrogate Activity-Based Plasma Stability Assay: […]
2) Calculate slope of value above and […]

The nature of data set [2]: Plasma Stability Assay (LC-MS). The class given is in vitro ADME. The following applies: male, Sprague-Dawley, rat. As for the experimental part: Plasma Stability Assay: Materials: Working solution: 1 mg/mL test article is prepared in Milli-Q water Extraction solution: Methanol:Acetonitrile:Water (1:1:1) with 0.1% Formic Acid and 400 ng/mL Glyburide. Plasma: Male Sprague-Dawley rat plasma (with sodium heparin), purchased from Bioreclamation LLC (Liverpool, N.Y.). Test article was prepared in one of the following biological matrices: heparinized rat plasma, heparinized rat whole blood or lung homogenate. […] Lung homogenate samples were prepared by diluting lung homogenate to 1 mg/ml protein concentration with phosphate buffered saline (PBS), followed by addition of 5 uL Working solution to 995 uL diluted lung homogenate. The samples were incubated at 37° C. with gentle shaking (65˜75 rpm) in a water bath incubator. […] Afterwards, a pipetting device (Tecan Temo) was used to tranfer the supernatants to another plate and add 50 uL of water to all samples. The plate was vortexed prior to LC-MS analysis. LC-MS Analysis of stability samples HPLC: Agilent 1290 HPLC with autosampler Column: MAC-MOD ACE C18, 3 μm, 30 mm×2.1 mm i.d. Mobile phase A: 0.1% Formic acid in acetonitrile Mobile phase B: 0.1% Formic acid in water Gradient Program: [table]

Setting [3] is: Surrogate Activity based Plasma stability t½.
Where [4] appears, read: Surrogate activity-based Plasma stability t½.

Take `CCCC[C@@H](NC(=O)[C@@H]1CCCN1C(=O)CNC(=O)[C@H](CCCCN)NC(=O)[C@@H](Cc1c[nH]cn1)NC(=O)[C@@H](C)NC(=O)[C@H](CC(C)C)NC(=O)[C@H](CCCNC(=N)N)NC(=O)[C@@H]1CCCN1C(=O)[C@H](CCCNC(=N)N)NC(=O)[C@@H]1CCC(=O)N1)C(=O)N[C@H](C)C(=O)N[C@H](Cc1ccccc1)C(=O)O` [Example 16, pE-R-P-R-L-a-h-K-G-P-nle-a-f-OH]: the concentration giving a half-maximal response (EC50) at hAPJ amounted to 8.8 nM. Also, the half-life in data set [1] (setting [3]) and in data set [1] (setting [4]) was 6.82 h in each case. This compound also displayed a half-life at 5000 ng/mL in data set [2] of 7.47 h.
Consider `CCCC[C@@H](NC(=O)[C@@H]1CCCN1C(=O)CNC(=O)[C@H](CCCCN)NC(=O)[C@H](Cc1ccccc1)NC(=O)[C@@H](C)NC(=O)[C@H](CC(C)C)NC(=O)[C@H](CCCNC(=N)N)NC(=O)[C@@H]1CCCN1C(=O)[C@H](CCCNC(=N)N)NC(=O)[C@@H]1CCC(=O)N1)C(=O)N[C@H](C)C(=O)N[C@H](Cc1ccccc1)C(=O)O` [Example 17, pE-R-P-R-L-a-F-K-G-P-nle-a-f-OH] ([pGlu]RPRL[dA]FKGP[dNle][dA][dF]-OH), for which the EC50 at hAPJ stood at 3.1 nM. In addition, the half-life in data set [1] (setting [3]) and in data set [1] (setting [4]) was greater than 16.7 h throughout. The compound further gave a half-life at 5000 ng/mL in data set [2] of 6.08 h.
Take `CCCC[C@H](NC(=O)[C@@H]1CCCN1C(=O)CNC(=O)[C@H](CCCCN)NC(=O)[C@H](Cc1c[nH]cn1)NC(=O)[C@@H](C)NC(=O)[C@H](CC(C)C)NC(=O)[C@H](CCCNC(=N)N)NC(=O)[C@@H]1CCCN1C(=O)[C@H](CCCNC(=N)N)NC(=O)[C@@H]1CCC(=O)N1)C(=O)N[C@H](C)C(=O)N[C@H](Cc1ccccc1)C(=O)O` [Example 30, pE-R-P-R-L-a-H-K-G-P-Nle-a-f-OH]: the EC50 at hAPJ worked out at 2.4 nM. Also, the half-life in data set [1] (setting [3]) was 2.13 h; in data set [1] (setting [4]), 2.14 h. In data set [2], the half-life at 5000 ng/mL amounted to 2.02 h.
